US6528675B1, “Cyanohydrin ethers and esters as high-sensitivity enzyme substrates” (The Regents of the University of California, priority 2001, dated 2003)
Values belong to the compound of their own block, whether it stands above or below them.

Tests used:
[1] = Change in optical properties, fluorescence of esters and hydrolysis products; assay type: physicochemical
Text: The substrates representing the invention were (R/S)-acetic acid cyano-(6-methoxynaphthalen-2-yl)-methyl ester (the title compound of Synthesis Example 1 above) and (trans/cis)-3-(2,2-dichlorovinyl)-2,2-dimethylcyclopropanecarboxylic acid cyano-(6-methoxynaphthalen-2-yl)-methyl ester (the title compound of Synthesis Example 2 above). The substrates of the prior art were methylumbelyl acetate (for detection by fluorescence emission) and 2-naphthacetate (for detection by UV absorption) in assay solutions with different pH values. These prior art substrates were selected because both are widely used and both have aromatic systems similar to the two test compounds.
Again using tris-maleate at pH levels of 6.5, 7.5, and 8.5, fluorescence studies were performed at concentrations of 10 μM, and fluorescence of the starting esters and the hydrolysis products (hydroxycoumarin in the case of methylumbelyl acetate and 6-methoxy-naphthaldehyde in the case of the Example 1 substrate) were determined by conventional instrumentation. The results are listed in Table III in which “MUA” denotes methylumbelyl acetate, “Compound I” denotes the Example 1 substrate, “Ex” denotes the optimal excitation wavelength in nm, “Emmax” denotes the maximal emission wavelength in nm, and “RFU” denotes the relative fluorescence units multiplied by 1,000.

[2] = Change in optical properties, UV absorption of esters and hydrolysis products; assay type: physicochemical; details: for ε (molar absorptivity): in M-1 cm-1 (unit assumed)
Text: The substrates representing the invention were (R/S)-acetic acid cyano-(6-methoxynaphthalen-2-yl)-methyl ester (the title compound of Synthesis Example 1 above) and (trans/cis)-3-(2,2-dichlorovinyl)-2,2-dimethylcyclopropanecarboxylic acid cyano-(6-methoxynaphthalen-2-yl)-methyl ester (the title compound of Synthesis Example 2 above).

[3] = tested on: cytochrome P450; test: Substrate response to P450 enzyme activity, rat microsomal enzyme preparation; assay type: biochemical, rats; details: pH 7.6, 37° C., substrate 10 mM final concentration, average of three tests
Text: This example compares four cytochrome P450 substrates within the scope of this invention with two cytochrome P450 substrates that are outside the scope of this invention. The four invention substrates were methoxynaphthalen-2-yl acetonitrile (whose synthesis is shown in Example 8 above and which is designated below as Compound III), ethoxynaphthalen-2-yl acetonitrile (synthesis shown in Example 9, Compound IV), benzoxynaphthalen-2-yl acetonitrile (synthesis shown in Example 10, Compound V), and pentoxynaphthalen-2-yl acetonitrile (synthesis shown in Example 11, Compound VI). The substrates outside the scope of the invention were ethoxyresorufin (designated below as Compound A) and pentoxyresorufin (designated below as Compound B). The structures of these last two substrates are as follows: [drawing 56]
All substrates were tested against a microsomal enzyme preparation from 8-week-old Fisher […] rats, by first combining 890 mL of the preparation with 2 mL of phosphate buffer (pH 7.6, 0.2 M) and incubating the mixture at 37° C. for 5 minutes. The substrate (10 mL) was then added (10 mM final concentration), followed by an appropriate signal generating system (100 mL). The samples were immediately read by fluorometer at 460 nm for 1 minute with excitation at 330 nm. The results in terms of specific activity, both with and without the enzyme system, are shown in Table VII, in which each entry represents an average of three tests.

[4] = Substrate stability in buffer, UV detection; assay type: physicochemical; details: 10 μM substrate, no enzyme, 5-minute reading
Method: (§1) The same two invention substrates and two prior art substrates were tested for stability by both UV detection and fluorescence detection under typical assay conditions.
(§2) Tris maleate buffers (0.1 M) at pH ranging from 6.0 to 9.0 in intervals of 1.0 were used, and substrate was added to 10 μM final concentration. […] The fluorescence samples were read with excitation at 360 nm and emission at 460 nm (for pH 6.0), 465 nm (for pH 7.0), 485 nm (pH 8.0), and 510 nm (pH 9.0) for the methylumbelyl acetate, and with excitation at 330 nm and emission at 460 nm for the two test compounds, in all cases, the readings over 5-minute periods.

[5] = Substrate stability in buffer, fluorescence detection; assay type: physicochemical; details: 10 μM substrate, no enzyme, 5-minute reading
Method: as §1, §2

[6] = tested on: homogenate of Heliothis virescens, pyrethroid-susceptible strain; test: Specific activity of esterase against substrates; assay type: biochemical; details: H. virescens (susceptible), pH 8.0, 10 μM substrate, fluorescence 330/460 nm
Method: (§3) The esterases were porcine esterase purchased from Sigma Chemical Company, St. Louis, Mo., USA, esterase from a rat liver microsomal preparation from 8-week-old Fisher 344 rats, and homogenates of Heliothis virescens from both pyrethroid-susceptible and -resistant strains of tobacco budworm. The substrate in each case was added to a tris-maleate buffer (pH 8.0, 0.1 m) to a final substrate concentration of 10 μM, followed by the addition of the enzyme preparation. The samples were then immediately read by fluorometer at 460 nm for one minute (excitation at 330 nm). The results are listed in Table VI, where “Compound I” denotes the Example 1 substrate, and “Compound II” denotes the Example 4 substrate.

[7] = tested on: homogenate of Heliothis virescens, pyrethroid-resistant strain; test: Specific activity of esterase against substrates; assay type: biochemical; details: H. virescens (resistant), pH 8.0, 10 μM substrate, fluorescence 330/460 nm
Method: as §3

[8] = tested on: porcine esterase; test: Specific activity of esterase against substrates; assay type: biochemical; details: pH 8.0, 10 μM substrate, fluorescence 330/460 nm
Method: as §3

[9] = tested on: esterase from a rat liver microsomal preparation; test: Specific activity of esterase against substrates; assay type: biochemical, Fisher 344 rats; details: Rat liver microsome, pH 8.0, 10 μM substrate, fluorescence 330/460 nm
Method: as §3

[10] = tested on: porcine esterase; test: Sensitivity of substrate to enzyme strength; assay type: biochemical; details: pH 8.0, 10 μM substrate, 1 unit=1 μmol/min/mL
Method: This example illustrates the sensitivity of the substrate to the enzyme, and compares a substrate in accordance with the present invention to two prior art substrates. […] The enzyme was porcine esterase.
A tris-maleate buffer at pH 8.0 (0.1 M) was used. The procedure consisted of adding substrate to a test tube containing 3 mL of buffer to a final substrate concentration of 10 μM, then adding porcine esterase at strengths of 0.06, 0.09. 0.12, 0.18, 0.30, 0.60, 0.9 and 1.2 unit, in which 1 unit=1 μmol/min/mL. […] The enzyme sensitivities for each substrate and detection method were defined as the minimal amount of enzyme per mL required to produce a signal from the substrate that was at least three times greater than the background noise.

Emmax (maximal emission wavelength) ([1]; tris-maleate pH 6.5, 10 μM): 460 nm
Ex (optimal excitation wavelength) ([1]; tris-maleate pH 6.5, 10 μM): 330 nm
RFU (relative fluorescence units multiplied by 1,000) ([1]; tris-maleate pH 6.5, 10 μM): 18,830 RFU
Emmax (maximal emission wavelength) ([1]; tris-maleate pH 7.5, 10 μM): 460 nm
Ex (optimal excitation wavelength) ([1]; tris-maleate pH 7.5, 10 μM): 330 nm
RFU (relative fluorescence units multiplied by 1,000) ([1]; tris-maleate pH 7.5, 10 μM): 19,025 RFU
Emmax (maximal emission wavelength) ([1]; tris-maleate pH 8.5, 10 μM): 460 nm
Ex (optimal excitation wavelength) ([1]; tris-maleate pH 8.5, 10 μM): 330 nm
RFU (relative fluorescence units multiplied by 1,000) ([1]; tris-maleate pH 8.5, 10 μM): 19,195 RFU
Compound: hydroxycoumarin [HO-coumarin]

emission peak ([1]; over the three pH levels tested (6.5, 7.5, 8.5)): 460 nm
Emmax (maximal emission wavelength) ([1]; tris-maleate pH 6.5, 10 μM): 450 nm
Ex (optimal excitation wavelength) ([1]; tris-maleate pH 6.5, 10 μM): 360 nm
RFU (relative fluorescence units multiplied by 1,000) ([1]; tris-maleate pH 6.5, 10 μM): 17,783 RFU
Emmax (maximal emission wavelength) ([1]; tris-maleate pH 7.5, 10 μM): 485 nm
Ex (optimal excitation wavelength) ([1]; tris-maleate pH 7.5, 10 μM): 360 nm
RFU (relative fluorescence units multiplied by 1,000) ([1]; tris-maleate pH 7.5, 10 μM): 19,250 RFU
Emmax (maximal emission wavelength) ([1]; tris-maleate pH 8.5, 10 μM): 510 nm
Ex (optimal excitation wavelength) ([1]; tris-maleate pH 8.5, 10 μM): 360 nm
RFU (relative fluorescence units multiplied by 1,000) ([1]; tris-maleate pH 8.5, 10 μM): 19,256 RFU
OD (optical density) ([2]; tris-maleate pH 6.5, 10 μM): 0.473
λmax ([2]; tris-maleate pH 6.5, 10 μM): 314 nm
ε (molar absorptivity) ([2]; tris-maleate pH 6.5, 10 μM): 11,870
OD (optical density) ([2]; tris-maleate pH 7.5, 10 μM): 0.468
λmax ([2]; tris-maleate pH 7.5, 10 μM): 313 nm
ε (molar absorptivity) ([2]; tris-maleate pH 7.5, 10 μM): 11,700
OD (optical density) ([2]; tris-maleate pH 8.5, 10 μM): 0.465
λmax ([2]; tris-maleate pH 8.5, 10 μM): 314 nm
ε (molar absorptivity) ([2]; tris-maleate pH 8.5, 10 μM): 11,630
Compound: COc1ccc2cc(C=O)ccc2c1 [aldehyde, 6-methoxy-2-naphthaldehyde]

Compound: COc1ccc2cc(C(C#N)OC(=O)C3C(C=C(Cl)Cl)C3(C)C)ccc2c1 (mixture of isomers) [Compound II, (trans/cis)-3-(2,2-Dichlorovinyl)-2,2-dimethylcyclopropanecarboxylic Acid Cyano-(6-methoxynaphthalen-2-yl) Methyl Ester]
Specific Activity, With Enzyme System [3]: 102.4 ± 7.5 pmol/min/mg protein
Specific Activity, Without Enzyme System [3]: 33.4 ± 2.0 pmol/min/mg protein
Substrate stability, UV Absorption ([4]; pH 6, tris maleate 0.1 M): <0.01 mAbs/min
Substrate stability, UV Absorption ([4]; pH 7, tris maleate 0.1 M): <0.01 mAbs/min
Substrate stability, UV Absorption ([4]; pH 8, tris maleate 0.1 M): <0.01 mAbs/min
Substrate stability, UV Absorption ([4]; pH 9, tris maleate 0.1 M): 0.05 mAbs/min
Substrate stability, Fluorescence ([5]; pH 6, tris maleate 0.1 M): <1 pmol/min
Substrate stability, Fluorescence ([5]; pH 7, tris maleate 0.1 M): <1 pmol/min
Substrate stability, Fluorescence ([5]; pH 8, tris maleate 0.1 M): <1 pmol/min
Substrate stability, Fluorescence ([5]; pH 9, tris maleate 0.1 M): 10 pmol/min
Specific Activity [6]: 150 ± 9 pmol/min/mg protein
Specific Activity [7]: 840 ± 22 pmol/min/mg protein
Specific Activity [8]: 142,000 ± 520 pmol/min/mg protein
Specific Activity [9]: 270 ± 18 pmol/min/mg protein

Compound: CCCCCOc1ccc2nc3ccc(=O)cc-3oc2c1 [Compound B, pentoxyresorufin, reference compound]
Specific Activity, With Enzyme System [3]: 62.5 ± 5.2 pmol/min/mg protein
Specific Activity, Without Enzyme System [3]: 41.8 ± 2.2 pmol/min/mg protein

melting point: 53 to 54 °C
Specific Activity, With Enzyme System [3]: 292.6 ± 16.2 pmol/min/mg protein
Specific Activity, Without Enzyme System [3]: 40.0 ± 1.2 pmol/min/mg protein
Compound: CCOC(C#N)c1ccc2ccccc2c1 (centres unmarked) [Compound IV, Ethoxynaphthalene-2-yl Acetonitrile]

melting point: 74 to 75 °C
Compound: N#CC(OC(=O)C/C=C/c1ccccc1)c1ccc2ccccc2c1 (centres unmarked)

melting point: 37 to 38 °C
Compound: CC(=O)OC(C#N)c1ccc2ccccc2c1 (racemic)

melting point: 47 to 48 °C
Specific Activity, With Enzyme System [3]: 275.8 ± 20.5 pmol/min/mg protein
Specific Activity, Without Enzyme System [3]: 45.9 ± 3.0 pmol/min/mg protein
Compound: COC(C#N)c1ccc2ccccc2c1 (centres unmarked) [Compound III, Methoxynaphthalene-2-yl Acetonitrile]

Compound: CC(=O)Oc1ccc2ccccc2c1 [Compound 2-NA, 2-naphthacetate, reference compound]
OD (optical density) ([2]; tris-maleate pH 6.5, 10 μM): 0.14
ε (molar absorptivity) ([2]; tris-maleate pH 6.5, 10 μM): 3,500
OD (optical density) ([2]; tris-maleate pH 7.5, 10 μM): 0.141
ε (molar absorptivity) ([2]; tris-maleate pH 7.5, 10 μM): 3,500
OD (optical density) ([2]; tris-maleate pH 8.5, 10 μM): 0.133
ε (molar absorptivity) ([2]; tris-maleate pH 8.5, 10 μM): 3,300
Substrate stability, UV Absorption ([4]; pH 6, tris maleate 0.1 M): <0.01 mAbs/min
Substrate stability, UV Absorption ([4]; pH 7, tris maleate 0.1 M): 0.05 mAbs/min
Substrate stability, UV Absorption ([4]; pH 8, tris maleate 0.1 M): 0.44 mAbs/min
Substrate stability, UV Absorption ([4]; pH 9, tris maleate 0.1 M): 0.555 mAbs/min
Sensitivity (minimal amount of enzyme per mL giving a signal at least three times background noise) ([10]; UV detection): 0.002

melting point: 36 to 37 °C
Compound: N#CC(OCc1ccccc1)c1ccc2ccccc2c1 (centres unmarked)

melting point: 60 to 61 °C
Compound: CCC1OC1CC(=O)OC(C#N)c1ccc2ccccc2c1 (centres unmarked)

Emmax (maximal emission wavelength) ([1]; tris-maleate pH 6.5, 10 μM): 366 nm
Ex (optimal excitation wavelength) ([1]; tris-maleate pH 6.5, 10 μM): 330 nm
RFU (relative fluorescence units multiplied by 1,000) ([1]; tris-maleate pH 6.5, 10 μM): 2,672 RFU
Emmax (maximal emission wavelength) ([1]; tris-maleate pH 7.5, 10 μM): 366 nm
Ex (optimal excitation wavelength) ([1]; tris-maleate pH 7.5, 10 μM): 330 nm
RFU (relative fluorescence units multiplied by 1,000) ([1]; tris-maleate pH 7.5, 10 μM): 1,350 RFU
Emmax (maximal emission wavelength) ([1]; tris-maleate pH 8.5, 10 μM): 366 nm
Ex (optimal excitation wavelength) ([1]; tris-maleate pH 8.5, 10 μM): 330 nm
RFU (relative fluorescence units multiplied by 1,000) ([1]; tris-maleate pH 8.5, 10 μM): 1,600 RFU
Sensitivity (minimal amount of enzyme per mL giving a signal at least three times background noise) ([10]; Fluorescence detection): 0.0005
Compound: CC(=O)Oc1ccc2c(C)cc(=O)oc2c1 [MUA, methylumbelyl acetate, reference compound]

Specific Activity, With Enzyme System [3]: 89.0 ± 4.6 pmol/min/mg protein
Specific Activity, Without Enzyme System [3]: 52.2 ± 1.9 pmol/min/mg protein
Compound: CCOc1ccc2nc3ccc(=O)cc-3oc2c1 [Compound A, ethoxyresorufin, reference compound]
